In US11006626B2, “Compounds for protection of cells” (Sulfateq B.V., priority 2012, dated 2021):

Legend:
[1] = test system: apherese blood platelets; assay: Apheresis platelets stored with Sul 136, platelet activation with ADP and TRAP by flow cytometry (CD62p); assay type: cell-based; design: Flow cytometry ADP / Flow cytometry TRAP: unit not given here; conditions: for Flow cytometry ADP / Flow cytometry P-selectin MFI / Flow cytometry TRAP: stored at 4° C. with Sul 136
Procedure: 300 μM suspension of Sul 136 is added with a procedure, which keeps the bag content sterile and the Sul 136 is kept in suspension by frequent whirling and stored at 37° C. before it is added to the freshly harvested platelets. The Sul 136 suspension is added to three platelet bags directly from the bag. After addition, the content of the platelet bag is gently mixed. After 2 hours the first sample is drawn with a seal-docked sample bag. The sample bag is disconnected by welding and from this sample bag the samples are taken for hematology analyzing, aggregometer tests and the flow-cytometry tests. Swirling in the bag is reported by experience of the laboratory worker in the standard format. Platelets without Sul 136 put on a flatbed shaker and stored at room temperature were used as control. Another control is stored at 4° C. Platelet samples in which Sul 136 is added, are stored without shaking in a refrigerator at 4° C.
Platelet activation was performed on a Beckman Coulter FC 500 flowcytometer using CD 41 PE, CD 62p FITC, IgG1 FITC/IgG1 PE antibodies of a Beckman Coulter kit.
40 μl Dilution buffer was brought in about 15 minutes to 37° C.; 10 μl IgG FITC/IgG PE+10 μl CD41 PE was added and mixed with Vortex, incubated 5 min at room temperature; 1000 μl cold HBSS buffer was added; measurement in flowcytometer was performed.
40 μl Dilution buffer was brought in about 15 minutes to 37° C.; 10 μl CD41 PE+5 μl CD62 FITC was added and mixed with Vortex, incubated during 5 min. at room temperature; 1000 μl cold HBSS buffer was added; measurement in flowcytometer was performed.
36 μl Dilution buffer+4 μl ADP was brought in about 15 minutes to 37° C.; 10 μl CD41 PE+5 μl CD62 FITC was added and mixed with Vortex, incubated during 5 min. at room temperature; 1000 μl cold HBSS buffer was added; measurement in flowcytometer was performed.
36 μl Dilution buffer+4 μl TRAP was brought in about 15 minutes to 37° C.; 10 μl CD41 PE+5 μl CD62 FITC was added and mixed with Vortex; incubateed during 5 min. at room temperature; 1000 μl cold HBSS buffer was added; measurement in flowcytometer was performed.

[2] = test system: PRP platelets; assay: PRP platelets stored with Sul 136, aggregation after stimulation with collagen; assay type: cell-based; design: key: +means that the cells show aggregation and can thus be activated upon stimulation; −means no aggregation upon stimulation
Procedure: […] • The color and coagulation properties were visually analysed. • The thrombocyte cells that survived were counted and it was evaluated whether the thrombocytes were aggregated. • It was evaluated if the thrombocytes still were able to function after stimulation by the addition of ADP or under influence of collagen in a 96 well plate. • The adhesion was evaluated, meaning the ability of the platelets to bind collagen in a 6 well plate preincubated with collagen. • Via an ELISA assay, it was evaluated whether thromboxane was secreted from the platelets. Thromboxane facilitates aggregation and is produced by activated blood platelets.
(+means that the cells show aggregation, ++means strong aggregation, these platelets can thus be activated upon stimulation, −means no aggregation upon stimulation)

Cc1c(C)c2c(c(C)c1O)CCC(C)(C(=O)N1CCN(CC(=O)O)CC1)O2 (racemic) [SUL - 136, 2-(4-(6-hydroxy-2,5,7,8-tetramethylchroman-2-carbonyl)piperazin-1-yl)acetic acid]
Flow cytometry ADP ([1]; Donor 2, Day 1): 2.12
Flow cytometry P-selectin MFI ([1]; Donor 2, Day 1): 1.67 MFI
Flow cytometry TRAP ([1]; Donor 2, Day 1): 1.88
Flow cytometry ADP ([1]; Donor 2, Day 2): 2.53
Flow cytometry P-selectin MFI ([1]; Donor 2, Day 2): 2.13 MFI
Flow cytometry TRAP ([1]; Donor 2, Day 2): 2.35
Flow cytometry ADP ([1]; Donor 2, Day 3): 3.21
Flow cytometry P-selectin MFI ([1]; Donor 2, Day 3): 2.59 MFI
Flow cytometry TRAP ([1]; Donor 2, Day 3): 2.76
Flow cytometry ADP ([1]; Donor 2, Day 5): 3.19
Flow cytometry P-selectin MFI ([1]; Donor 2, Day 5): 2.95 MFI
Flow cytometry TRAP ([1]; Donor 2, Day 5): 3.16
Flow cytometry ADP ([1]; Donor 2, Day 8): 3.08
Flow cytometry P-selectin MFI ([1]; Donor 2, Day 8): 2.99 MFI
Flow cytometry TRAP ([1]; Donor 2, Day 8): 3.22
Flow cytometry ADP ([1]; Donor 2, Day 10): 2.83
Flow cytometry P-selectin MFI ([1]; Donor 2, Day 10): 2.76 MFI
Flow cytometry TRAP ([1]; Donor 2, Day 10): 2.96
Flow cytometry ADP ([1]; Donor 2, Day 12): 2.62
Flow cytometry P-selectin MFI ([1]; Donor 2, Day 12): 2.63 MFI
Flow cytometry TRAP ([1]; Donor 2, Day 12): 2.73
Flow cytometry ADP ([1]; Donor 2, Day 19): 1.99
Flow cytometry P-selectin MFI ([1]; Donor 2, Day 19): 2.01 MFI
Flow cytometry TRAP ([1]; Donor 2, Day 19): 2.14
Flow cytometry ADP ([1]; Donor 3, Day 1): 2.71
Flow cytometry P-selectin MFI ([1]; Donor 3, Day 1): 1.90 MFI
Flow cytometry TRAP ([1]; Donor 3, Day 1): 2.08
Flow cytometry ADP ([1]; Donor 3, Day 2): 3.49
Flow cytometry P-selectin MFI ([1]; Donor 3, Day 2): 2.82 MFI
Flow cytometry TRAP ([1]; Donor 3, Day 2): 3.62
Flow cytometry ADP ([1]; Donor 3, Day 3): 4.96
Flow cytometry P-selectin MFI ([1]; Donor 3, Day 3): 3.84 MFI
Flow cytometry TRAP ([1]; Donor 3, Day 3): 4.42
Flow cytometry ADP ([1]; Donor 3, Day 5): 4.84
Flow cytometry P-selectin MFI ([1]; Donor 3, Day 5): 4.50 MFI
Flow cytometry TRAP ([1]; Donor 3, Day 5): 5.04
Flow cytometry ADP ([1]; Donor 3, Day 8): 4.91
Flow cytometry P-selectin MFI ([1]; Donor 3, Day 8): 4.82 MFI
Flow cytometry TRAP ([1]; Donor 3, Day 8): 5.24
Flow cytometry ADP ([1]; Donor 3, Day 10): 4.25
Flow cytometry P-selectin MFI ([1]; Donor 3, Day 10): 4.37 MFI
Flow cytometry TRAP ([1]; Donor 3, Day 10): 5.04
Flow cytometry ADP ([1]; Donor 3, Day 12): 3.84
Flow cytometry P-selectin MFI ([1]; Donor 3, Day 12): 3.89 MFI
Flow cytometry TRAP ([1]; Donor 3, Day 12): 4.20
Flow cytometry ADP ([1]; Donor 3, Day 19): 2.37
Flow cytometry P-selectin MFI ([1]; Donor 3, Day 19): 2.22 MFI
Flow cytometry TRAP ([1]; Donor 3, Day 19): 2.01
Flow cytometry ADP ([1]; donor 1, Day 1): 3.07
Flow cytometry P-selectin MFI ([1]; donor 1, Day 1): 2.09 MFI
Flow cytometry TRAP ([1]; donor 1, Day 1): 3.57
Flow cytometry ADP ([1]; donor 1, Day 2): 3.28
Flow cytometry P-selectin MFI ([1]; donor 1, Day 2): 3.04 MFI
Flow cytometry TRAP ([1]; donor 1, Day 2): 3.78
Flow cytometry ADP ([1]; donor 1, Day 3): 4.12
Flow cytometry P-selectin MFI ([1]; donor 1, Day 3): 3.73 MFI
Flow cytometry TRAP ([1]; donor 1, Day 3): 4.95
Flow cytometry ADP ([1]; donor 1, Day 5): 4.20
Flow cytometry P-selectin MFI ([1]; donor 1, Day 5): 4.12 MFI
Flow cytometry TRAP ([1]; donor 1, Day 5): 5.55
Flow cytometry ADP ([1]; donor 1, Day 8): 4.83
Flow cytometry P-selectin MFI ([1]; donor 1, Day 8): 4.82 MFI
Flow cytometry TRAP ([1]; donor 1, Day 8): 5.52
Flow cytometry ADP ([1]; donor 1, Day 10): 4.46
Flow cytometry P-selectin MFI ([1]; donor 1, Day 10): 4.48 MFI
Flow cytometry TRAP ([1]; donor 1, Day 10): 5.52
Flow cytometry ADP ([1]; donor 1, Day 12): 4.43
Flow cytometry P-selectin MFI ([1]; donor 1, Day 12): 4.57 MFI
Flow cytometry TRAP ([1]; donor 1, Day 12): 4.42
Flow cytometry ADP ([1]; donor 1, Day 19): 2.74
Flow cytometry P-selectin MFI ([1]; donor 1, Day 19): 2.92 MFI
Flow cytometry TRAP ([1]; donor 1, Day 19): 2.76
flow cytometry tests ([1]; stored at 4° C. with compound vs. platelets stored at room temperature): similar
aggregation of the PRP platelets after stimulation with collagen ([2]; 10 min 0.001 mM, 24 h): −
aggregation of the PRP platelets after stimulation with collagen ([2]; 10 min 0.001 mM, 48 h): −
aggregation of the PRP platelets after stimulation with collagen ([2]; 10 min 0.001 mM, 72 h): −
aggregation of the PRP platelets after stimulation with collagen ([2]; 10 min 0.001 mM, 216 h): −
aggregation of the PRP platelets after stimulation with collagen ([2]; 10 min 0.01 mM, 24 h): −
aggregation of the PRP platelets after stimulation with collagen ([2]; 10 min 0.01 mM, 48 h): −
aggregation of the PRP platelets after stimulation with collagen ([2]; 10 min 0.01 mM, 72 h): −
aggregation of the PRP platelets after stimulation with collagen ([2]; 10 min 0.01 mM, 216 h): −
aggregation of the PRP platelets after stimulation with collagen ([2]; 10 min 0.1 mM, 48 h): −
aggregation of the PRP platelets after stimulation with collagen ([2]; 10 min 0.1 mM, 72 h): −
aggregation of the PRP platelets after stimulation with collagen ([2]; 10 min 0.1 mM, 216 h): −
aggregation of the PRP platelets after stimulation with collagen ([2]; 10 min 1 mM, 48 h): −
aggregation of the PRP platelets after stimulation with collagen ([2]; 60 min 0.001 mM, 24 h): −
aggregation of the PRP platelets after stimulation with collagen ([2]; 60 min 0.001 mM, 48 h): −
aggregation of the PRP platelets after stimulation with collagen ([2]; 60 min 0.001 mM, 72 h): −
aggregation of the PRP platelets after stimulation with collagen ([2]; 60 min 0.001 mM, 216 h): −
aggregation of the PRP platelets after stimulation with collagen ([2]; 60 min 0.01 mM, 24 h): −
aggregation of the PRP platelets after stimulation with collagen ([2]; 60 min 0.01 mM, 48 h): −
aggregation of the PRP platelets after stimulation with collagen ([2]; 60 min 0.01 mM, 72 h): −
aggregation of the PRP platelets after stimulation with collagen ([2]; 60 min 0.01 mM, 216 h): −
aggregation of the PRP platelets after stimulation with collagen ([2]; 60 min 0.1 mM, 24 h): −
aggregation of the PRP platelets after stimulation with collagen ([2]; 60 min 0.1 mM, 48 h): −
aggregation of the PRP platelets after stimulation with collagen ([2]; 60 min 0.1 mM, 72 h): −
aggregation of the PRP platelets after stimulation with collagen ([2]; 60 min 0.1 mM, 216 h): −
aggregation of the PRP platelets after stimulation with collagen ([2]; 60 min 1 mM, 24 h): −
aggregation of the PRP platelets after stimulation with collagen ([2]; 60 min 1 mM, 48 h): −
aggregation of the PRP platelets after stimulation with collagen ([2]; 60 min 1 mM, 72 h): −
aggregation of the PRP platelets after stimulation with collagen ([2]; 60 min 10 mM, 216 h): −
